Measured values taken from ChEMBL document CHEMBL5465560, “Selectivity Literature for EUbOPEN Chemogenomic Library” (2024).
Blank lines part the entries; values can stand above or below the compound they belong to.

Experiments:
[1] = target: Mitogen-activated protein kinase kinase kinase 4 (Homo sapiens) (UniProt Q9Y6R4); experiment: Selectivity interaction (KinomeScan (DiscoverX)) EUB0001049a MAP3K4; details: at 1 µM
[2] = target: T1, Serine/threonine-protein kinase LATS1 (Homo sapiens) (UniProt O95835); experiment: Selectivity interaction (ActivX KiNativ screen (kinase selectivity in THP-1 cell lysates)) EUB0000639a LATS1; format: subcellular; details: lysate, at 0.01 µM
T1 sequence (whole entry): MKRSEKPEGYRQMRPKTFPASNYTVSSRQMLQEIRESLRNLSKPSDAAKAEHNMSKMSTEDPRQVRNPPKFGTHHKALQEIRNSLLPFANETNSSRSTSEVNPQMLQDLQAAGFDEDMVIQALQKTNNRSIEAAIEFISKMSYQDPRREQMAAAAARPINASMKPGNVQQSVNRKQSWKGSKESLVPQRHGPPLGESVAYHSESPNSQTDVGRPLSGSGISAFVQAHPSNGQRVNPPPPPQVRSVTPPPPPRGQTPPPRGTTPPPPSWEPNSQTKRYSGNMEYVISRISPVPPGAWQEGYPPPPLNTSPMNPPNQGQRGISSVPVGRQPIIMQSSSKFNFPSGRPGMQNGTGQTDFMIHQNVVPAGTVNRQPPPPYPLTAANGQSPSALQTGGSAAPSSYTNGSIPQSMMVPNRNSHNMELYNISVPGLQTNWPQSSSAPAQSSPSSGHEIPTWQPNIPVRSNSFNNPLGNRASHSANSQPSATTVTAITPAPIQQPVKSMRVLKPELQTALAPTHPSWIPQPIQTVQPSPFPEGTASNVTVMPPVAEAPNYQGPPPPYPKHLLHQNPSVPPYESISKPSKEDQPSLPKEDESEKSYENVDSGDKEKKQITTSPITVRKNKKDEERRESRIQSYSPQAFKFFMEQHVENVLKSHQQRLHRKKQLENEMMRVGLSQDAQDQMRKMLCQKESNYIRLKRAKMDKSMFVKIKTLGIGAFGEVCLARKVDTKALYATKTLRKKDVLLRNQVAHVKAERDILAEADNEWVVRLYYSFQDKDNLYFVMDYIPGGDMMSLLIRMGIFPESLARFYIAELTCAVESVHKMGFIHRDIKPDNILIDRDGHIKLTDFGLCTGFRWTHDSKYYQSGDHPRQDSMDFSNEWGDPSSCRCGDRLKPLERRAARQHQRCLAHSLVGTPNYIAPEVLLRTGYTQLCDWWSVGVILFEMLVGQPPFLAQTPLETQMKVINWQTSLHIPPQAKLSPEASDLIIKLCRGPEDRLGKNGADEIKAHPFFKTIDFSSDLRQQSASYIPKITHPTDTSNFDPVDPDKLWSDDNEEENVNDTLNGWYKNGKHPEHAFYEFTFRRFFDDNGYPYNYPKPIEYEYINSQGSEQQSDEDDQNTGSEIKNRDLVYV

[3] = target: MAP kinase-interacting serine/threonine-protein kinase 1 (Homo sapiens) (UniProt Q9BUB5); experiment: Selectivity interaction (KinomeScan (DiscoverX)) EUB0000595a MKNK1; details: at 10 µM
[4] = target: Mitogen-activated protein kinase kinase kinase kinase 1 (Homo sapiens) (UniProt Q92918); experiment: Selectivity interaction (KinomeScan (DiscoverX)) EUB0000229b MAP4K1; details: at 10 µM
[5] = target: T2, Inhibitor of nuclear factor kappa-B kinase subunit beta (Homo sapiens) (UniProt O14920); details: at 1 µM
T2 sequence (whole entry): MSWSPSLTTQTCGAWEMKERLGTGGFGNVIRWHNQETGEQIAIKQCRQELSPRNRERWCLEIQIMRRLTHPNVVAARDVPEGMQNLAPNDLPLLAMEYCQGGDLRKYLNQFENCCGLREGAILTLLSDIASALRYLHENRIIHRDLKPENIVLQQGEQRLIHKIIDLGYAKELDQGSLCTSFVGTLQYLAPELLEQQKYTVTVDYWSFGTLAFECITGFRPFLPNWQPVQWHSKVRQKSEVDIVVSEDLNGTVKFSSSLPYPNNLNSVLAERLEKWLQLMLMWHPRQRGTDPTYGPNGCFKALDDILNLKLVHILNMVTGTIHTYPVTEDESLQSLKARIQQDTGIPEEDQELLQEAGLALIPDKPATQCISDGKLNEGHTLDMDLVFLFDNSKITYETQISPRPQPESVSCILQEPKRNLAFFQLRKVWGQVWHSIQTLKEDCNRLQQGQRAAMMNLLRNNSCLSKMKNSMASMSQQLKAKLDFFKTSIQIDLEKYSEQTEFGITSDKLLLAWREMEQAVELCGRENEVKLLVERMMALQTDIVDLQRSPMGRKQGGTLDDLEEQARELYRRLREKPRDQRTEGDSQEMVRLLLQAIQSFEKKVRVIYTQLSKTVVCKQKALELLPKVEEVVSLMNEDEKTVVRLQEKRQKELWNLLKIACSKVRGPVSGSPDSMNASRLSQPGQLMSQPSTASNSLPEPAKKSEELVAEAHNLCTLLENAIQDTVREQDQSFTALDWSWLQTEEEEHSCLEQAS

[6] = target: Death-associated protein kinase 3 (Homo sapiens) (UniProt O43293); experiment: Selectivity interaction (KinomeScan (DiscoverX)) EUB0001619a DAPK3; details: at 1 µM
[7] = target: Serine/threonine-protein kinase Chk2 (Homo sapiens) (UniProt O96017); experiment: Selectivity interaction (Kinase panel (DSF assay)) EUB0001558a CHEK2
Sequence of Serine/threonine-protein kinase Chk2 (Homo sapiens) (O96017 whole entry): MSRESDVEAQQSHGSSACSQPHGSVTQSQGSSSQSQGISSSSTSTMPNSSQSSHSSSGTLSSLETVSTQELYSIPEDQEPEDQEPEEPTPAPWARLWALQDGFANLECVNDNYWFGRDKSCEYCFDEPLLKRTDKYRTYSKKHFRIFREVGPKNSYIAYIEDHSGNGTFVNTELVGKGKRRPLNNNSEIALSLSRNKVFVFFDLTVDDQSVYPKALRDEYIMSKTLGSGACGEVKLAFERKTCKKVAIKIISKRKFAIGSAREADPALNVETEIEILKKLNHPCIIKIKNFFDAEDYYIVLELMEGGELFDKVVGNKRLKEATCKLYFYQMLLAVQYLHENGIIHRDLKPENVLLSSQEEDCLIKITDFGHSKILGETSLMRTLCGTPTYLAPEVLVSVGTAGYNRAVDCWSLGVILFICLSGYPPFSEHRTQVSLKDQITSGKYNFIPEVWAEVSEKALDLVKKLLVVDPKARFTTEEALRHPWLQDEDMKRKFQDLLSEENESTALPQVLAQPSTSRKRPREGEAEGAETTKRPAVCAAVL

Sequence of Mitogen-activated protein kinase kinase kinase 4 (Homo sapiens) (Q9Y6R4 whole entry): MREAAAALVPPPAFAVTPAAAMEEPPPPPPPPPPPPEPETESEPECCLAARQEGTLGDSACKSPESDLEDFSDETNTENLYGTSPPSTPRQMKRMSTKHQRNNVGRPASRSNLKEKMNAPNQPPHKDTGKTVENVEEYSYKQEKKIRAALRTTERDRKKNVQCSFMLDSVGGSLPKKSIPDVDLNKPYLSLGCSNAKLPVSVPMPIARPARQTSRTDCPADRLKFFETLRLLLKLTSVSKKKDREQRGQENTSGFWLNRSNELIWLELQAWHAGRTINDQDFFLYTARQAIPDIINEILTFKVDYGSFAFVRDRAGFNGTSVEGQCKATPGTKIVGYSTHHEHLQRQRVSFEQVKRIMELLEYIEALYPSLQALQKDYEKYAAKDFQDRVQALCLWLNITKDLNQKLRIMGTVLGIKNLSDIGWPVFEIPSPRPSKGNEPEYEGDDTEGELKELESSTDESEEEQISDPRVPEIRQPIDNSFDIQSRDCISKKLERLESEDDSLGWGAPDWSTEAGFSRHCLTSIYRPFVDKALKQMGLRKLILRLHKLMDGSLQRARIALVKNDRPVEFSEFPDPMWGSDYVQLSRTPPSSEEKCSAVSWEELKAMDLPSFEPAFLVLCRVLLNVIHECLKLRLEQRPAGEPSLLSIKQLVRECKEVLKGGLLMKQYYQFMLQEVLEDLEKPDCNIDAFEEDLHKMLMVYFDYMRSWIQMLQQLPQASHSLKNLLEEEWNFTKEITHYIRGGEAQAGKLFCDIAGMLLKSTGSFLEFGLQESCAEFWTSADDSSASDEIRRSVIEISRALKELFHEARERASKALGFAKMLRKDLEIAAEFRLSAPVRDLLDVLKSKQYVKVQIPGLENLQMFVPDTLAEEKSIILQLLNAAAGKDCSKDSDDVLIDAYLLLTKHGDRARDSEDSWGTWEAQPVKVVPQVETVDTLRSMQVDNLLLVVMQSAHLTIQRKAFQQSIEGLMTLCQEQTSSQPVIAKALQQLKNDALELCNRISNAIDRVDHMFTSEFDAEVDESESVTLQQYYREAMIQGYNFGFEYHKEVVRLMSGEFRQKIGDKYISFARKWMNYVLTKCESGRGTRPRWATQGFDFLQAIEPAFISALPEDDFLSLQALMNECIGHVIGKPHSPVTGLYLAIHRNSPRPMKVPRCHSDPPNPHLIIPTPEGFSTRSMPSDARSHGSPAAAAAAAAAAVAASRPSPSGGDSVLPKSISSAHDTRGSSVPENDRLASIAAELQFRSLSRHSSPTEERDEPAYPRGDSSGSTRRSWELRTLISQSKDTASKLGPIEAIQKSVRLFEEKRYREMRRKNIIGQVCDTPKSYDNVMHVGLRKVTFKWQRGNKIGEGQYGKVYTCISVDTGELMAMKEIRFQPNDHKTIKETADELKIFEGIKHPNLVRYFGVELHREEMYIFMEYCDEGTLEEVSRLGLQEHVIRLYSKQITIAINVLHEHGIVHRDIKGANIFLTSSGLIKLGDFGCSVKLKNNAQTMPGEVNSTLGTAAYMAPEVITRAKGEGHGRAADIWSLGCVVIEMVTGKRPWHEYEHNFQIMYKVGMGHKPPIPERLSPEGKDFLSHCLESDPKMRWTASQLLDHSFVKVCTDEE
Sequence of Death-associated protein kinase 3 (Homo sapiens) (O43293 whole entry, looked up): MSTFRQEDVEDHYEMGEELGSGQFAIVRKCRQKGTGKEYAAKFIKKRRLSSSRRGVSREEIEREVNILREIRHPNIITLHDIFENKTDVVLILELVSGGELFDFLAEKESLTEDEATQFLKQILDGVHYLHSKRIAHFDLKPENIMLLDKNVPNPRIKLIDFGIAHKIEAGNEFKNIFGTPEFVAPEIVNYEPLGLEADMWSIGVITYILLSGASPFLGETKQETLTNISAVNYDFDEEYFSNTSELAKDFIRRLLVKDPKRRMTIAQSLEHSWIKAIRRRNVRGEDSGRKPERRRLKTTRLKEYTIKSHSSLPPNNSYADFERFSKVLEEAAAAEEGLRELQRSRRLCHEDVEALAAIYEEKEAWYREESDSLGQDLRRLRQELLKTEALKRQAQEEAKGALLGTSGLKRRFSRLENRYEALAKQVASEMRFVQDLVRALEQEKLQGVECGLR
Sequence of Mitogen-activated protein kinase kinase kinase kinase 1 (Homo sapiens) (Q92918 whole entry, looked up): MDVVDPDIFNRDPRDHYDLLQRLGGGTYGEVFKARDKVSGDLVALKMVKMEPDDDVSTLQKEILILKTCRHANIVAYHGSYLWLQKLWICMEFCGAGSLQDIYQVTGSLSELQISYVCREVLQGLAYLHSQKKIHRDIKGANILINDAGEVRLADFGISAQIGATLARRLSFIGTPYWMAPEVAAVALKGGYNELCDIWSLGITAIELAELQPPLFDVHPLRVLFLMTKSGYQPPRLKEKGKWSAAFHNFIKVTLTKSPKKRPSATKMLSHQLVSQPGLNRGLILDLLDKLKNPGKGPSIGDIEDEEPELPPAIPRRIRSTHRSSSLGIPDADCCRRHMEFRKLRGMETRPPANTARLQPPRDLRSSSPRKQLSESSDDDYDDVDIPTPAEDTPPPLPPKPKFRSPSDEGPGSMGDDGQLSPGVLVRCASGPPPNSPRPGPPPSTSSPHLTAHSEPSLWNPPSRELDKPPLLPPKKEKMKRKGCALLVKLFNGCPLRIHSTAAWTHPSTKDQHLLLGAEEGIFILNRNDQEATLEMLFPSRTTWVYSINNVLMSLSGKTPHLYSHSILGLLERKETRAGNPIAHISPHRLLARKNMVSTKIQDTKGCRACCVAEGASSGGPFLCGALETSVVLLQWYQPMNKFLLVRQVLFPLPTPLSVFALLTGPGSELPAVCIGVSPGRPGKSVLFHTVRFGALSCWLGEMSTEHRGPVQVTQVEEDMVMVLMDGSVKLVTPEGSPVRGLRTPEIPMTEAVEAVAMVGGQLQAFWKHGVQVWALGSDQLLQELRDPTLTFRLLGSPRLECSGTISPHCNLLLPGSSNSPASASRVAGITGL
Sequence of MAP kinase-interacting serine/threonine-protein kinase 1 (Homo sapiens) (Q9BUB5 whole entry, looked up): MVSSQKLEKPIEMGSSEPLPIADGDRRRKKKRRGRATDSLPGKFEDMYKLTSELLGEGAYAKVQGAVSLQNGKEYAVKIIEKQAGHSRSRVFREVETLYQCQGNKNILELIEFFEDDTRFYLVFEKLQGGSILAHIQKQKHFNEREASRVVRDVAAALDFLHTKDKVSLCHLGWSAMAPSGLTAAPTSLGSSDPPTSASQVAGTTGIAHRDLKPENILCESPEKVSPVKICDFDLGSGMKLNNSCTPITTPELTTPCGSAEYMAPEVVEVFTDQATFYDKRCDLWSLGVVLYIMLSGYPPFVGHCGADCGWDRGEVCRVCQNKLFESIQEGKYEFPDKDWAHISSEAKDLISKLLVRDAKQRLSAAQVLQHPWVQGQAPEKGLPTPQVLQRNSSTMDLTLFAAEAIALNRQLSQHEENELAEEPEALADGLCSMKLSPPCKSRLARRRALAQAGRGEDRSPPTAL

Structure (SMILES): COc1cc(Nc2nc(C)cc(-c3cnn4nc(OC)ccc34)n2)cc(C(F)(F)F)c1
% of control [1]: 87%

% of inhibition [2]: 15.8%
Structure (SMILES): CC[C@@H]1[C@H](F)C(=O)N[C@@H]1COc1nccc2cc(C(N)=O)c(OC)cc12 [ZIMLOVISERTIB]

Structure (SMILES): COCC(=O)NC/C=C/c1ccc2ncnc(Nc3ccc(Oc4ccc(C)nc4)c(C)c3)c2c1 [CP-724714]
% of control [3]: 100%

Structure (SMILES): COc1cc(N(C)c2ccnc3ccc(C(F)(F)F)cc23)cc(OC)c1OC
% binding [4]: 96%

% of inhibition [5]: 0%
Structure (SMILES): Cc1ccc(-c2ccc3c(ccc4sc5c(c43)NC[C@@H](C)NC5=O)n2)cn1

Structure (SMILES): N#Cc1cccc(-c2c[nH]c3ncnc(N4CCOCC4)c23)c1
% of control [6]: 100%

Structure (SMILES): CC(C)(O)[C@H](F)CN1Cc2cc(NC(=O)c3cnn4cccnc34)c(N3CCOCC3)cc2C1=O
dTM [7]: 1.5 K
